{"source": "patent US20080063660A1", "about": "“Method to reduce the physiologic effects of drugs on mammals” (Anarco, Inc., priority 1993, published 2008)", "key": {"[1]": {"details": "stated in brackets beside the i.v. challenge dose; cited from earlier work"}, "[2]": {"system": "rabbits", "assay": "intravenous cocaine-HCl challenge of rabbits immunized with COALB", "experimental": "Rabbits were immunized with COALB by subcutaneous injection of 100 μg of the benzoylecgonine-conjugated immunogen every two weeks for a period of two months (four injections). Freund's complete adjuvant was used in the first injection and Freund's incomplete adjuvant was utilized for subsequent injections."}}, "note": "Counter-ions that a name gives are not always drawn.", "data": [{"smiles": "COC(=O)[C@H]1[C@@H](OC(=O)c2ccccc2)C[C@@H]2CC[C@H]1N2C", "note": "[cocaine-HCl]", "values": [{"measurement": "LD50", "setting": "[1]", "result": 12, "unit": "mg/kg"}, {"measurement": "physiologic/toxic effects of cocaine in control (un-immunized) rabbits", "setting": "[2]; cocaine-HCl 2 mg/kg i.v. in sterile saline", "result": "marked grande maul convulsions"}, {"measurement": "time to recovery of control rabbits after cocaine", "setting": "[2]; cocaine-HCl 2 mg/kg i.v., un-immunized rabbits", "result": "10 to 15", "unit": "min"}]}]}
